Measured values taken from patent US20100136118A1, “CALCIUM ABSORPTION ENHANCER” (priority 2007, published 2010).
Entries after “also recorded” stand apart in the source; their conditions may differ.

How the values were obtained:
Type in all cases: physicochemical
Conditions in all cases: organic acid calcium from egg shell mixture (A)
[1] = sustained release property in simulated gastric cavity (column, 0.1 N aqueous HCl solution)
Experimental: Subsequently, 0.1 N aqueous HCl solution simulating a gastric juice as a solvent was passed through this column and separated by a low-pressure chromatography system (Bio-Rad Laboratories, Inc., BioLogic LP Chromatography System) over time. The flow rate of the solvent during the separation was 1.0 mL/min. Then, the calcium ion concentration in each separated solution was measured using Calcium C-test Wako (Wako Pure Chemical Industries, Ltd., Cat. No. 272-21801). The concentration of the organic acid in each separated solution (lactic acid, acetic acid, and citric acid) was measured using F-Kit Lactic Acid, F-Kit Acetic Acid, and F-Kit Citric Acid (Roche Diagnostics K.K., Cat. Nos. 1112821, 148261, and 139076).
(§1) The amount of an eluted solvent (mL) and changes in the amount of calcium ions (integrated value) with elution of 0.1 N HCl were measured, and the amount of an eluted solvent (mL) and changes in the amount of each organic acid (integrated value) with elution of 0.1 N HCl were measured.
Using 0.1 N aqueous HCl solution as a solvent, the amount of solvent (mL) eluted in the simulated gastric cavity and changes in the amount of calcium ions (integrated value) with elution of the solvent were evaluated. […]

[2] = sustained release property in simulated gastric cavity (column, 0.05 N aqueous HCl solution, diluted gastric juice)
Experimental: as §1, with “0.05” for “0.1”, “measured. Among the obtained results, the measurement results regarding the amount of calcium ions (integrated value) are shown in FIG. 9.” for “measured.”
(§2) Furthermore, as a solvent, 0.05 N aqueous HCl solution was used instead of 0.1 N aqueous HCl solution to simulate a state in which gastric juice in an organism was diluted with drinking water. Except for this condition, the amount of solvent (mL) eluted in the simulated gastric cavity and changes in the amount of calcium ions (integrated value) with elution of the solvent were evaluated in the same manner as in Example 8.
(§3) Using 0.05 N aqueous HCl solution as a solvent, the amount of solvent (mL) eluted in the simulated gastric cavity and changes in the amount of calcium ions (integrated value) with elution of the solvent were evaluated. […]
as §3

[3] = sustained release property in simulated intestines (column, distilled water)
Experimental: as §1, with “distilled water” for “0.1 N HCl”, “measured. Among the obtained results, the measurement results regarding the amount of calcium ions (integrated value) are shown in FIG. 11.” for “measured.”
as §2, with “distilled water” for “0.05 N aqueous HCl solution”, “acid” for “juice in an organism”, “neutralized when a drink or a food was transported from the stomach to the duodenum.” for “diluted with drinking water.”
Using distilled water as a solvent, the amount of solvent (mL) eluted in the simulated gastric cavity and changes in the amount of calcium ions (integrated value) with elution of the solvent were evaluated. […]
Using distilled water as a solvent, the amount of solvent (mL) eluted in the simulated intestine and changes in the amount of calcium ions (integrated value) with elution of the solvent were evaluated. […]

CC(O)C(=O)[O-].CC(O)C(=O)[O-].[Ca+2] (stereo not drawn) [calcium lactate]
amount of each organic acid (integrated value) vs amount of eluted solvent [1]: dissolved first at the stage of the start of measurement
amount of each organic acid (integrated value) vs amount of eluted solvent [2]: dissolved first
amount of each organic acid (integrated value) vs amount of eluted solvent [3]: dissolved first at the stage of the start of measurement

O=C([O-])CC(O)(CC(=O)[O-])C(=O)[O-].O=C([O-])CC(O)(CC(=O)[O-])C(=O)[O-].[Ca+2].[Ca+2].[Ca+2] [calcium citrate]
amount of each organic acid (integrated value) vs amount of eluted solvent [1]: started gradually after the start of elution
amount of each organic acid (integrated value) vs amount of eluted solvent [2]: gradually dissolved; also recorded: dissolved in virtually the same amount
amount of each organic acid (integrated value) vs amount of eluted solvent [3]: gradually dissolved
